Counter-ions that a name gives are not always drawn.
test system: NCI-H292 lung cancer cells; assay: FDA drug screening, complete media vs cholesterol-free media with simvastatin (TABLE 2); assay type: cell-based, human; conditions: NCI-H292 cells, cholesterol-free media with simvastatin 0.04 μM; […]

Row | SMILES | Cholesterol-free media + simvastatin (0.04 μM)
1 | CC(C)N(CCNC(=O)CN1CCCC1=O)C(C)C [Pramiracetam] | 0.8266

same assay, conditions: NCI-H292 cells, cholesterol-free media with simvastatin 0.04 μM; cell growth value in FDA drug screen

Row | SMILES | Cholesterol-free media + simvastatin (0.04 μM)
2 | O=C(Nc1cccc2c(=O)cc(-c3nnn[nH]3)oc12)c1ccc(OCCCCc2ccccc2)cc1 [Pranlukast (hemihydrate)] | 1.189
3 | CC[C@H](C)C(=O)O[C@H]1C[C@H](O)C=C2C=C[C@H](C)[C@H](CC[C@@H](O)C[C@@H](O)CC(=O)[O-])[C@H]21.[Na+] [Pravastatin (sodium)] | 1.193
4 | C[C@]12C=CC(=O)C=C1CC[C@@H]1[C@@H]2C(=O)C[C@@]2(C)[C@H]1CC[C@]2(O)C(=O)CO [Prednisone] | 0.9598

same assay, conditions: NCI-H292 cells, complete media; […]

Row | SMILES | Complete Media
5 | CC(C)N(CCNC(=O)CN1CCCC1=O)C(C)C [Pramiracetam] | 0.938

same assay, conditions: NCI-H292 cells, complete media; cell growth value in FDA drug screen

Row | SMILES | Complete Media
6 | O=C(Nc1cccc2c(=O)cc(-c3nnn[nH]3)oc12)c1ccc(OCCCCc2ccccc2)cc1 [Pranlukast (hemihydrate)] | 1.285
7 | CC[C@H](C)C(=O)O[C@H]1C[C@H](O)C=C2C=C[C@H](C)[C@H](CC[C@@H](O)C[C@@H](O)CC(=O)[O-])[C@H]21.[Na+] [Pravastatin (sodium)] | 1.235
8 | C[C@]12C=CC(=O)C=C1CC[C@@H]1[C@@H]2C(=O)C[C@@]2(C)[C@H]1CC[C@]2(O)C(=O)CO [Prednisone] | 1.028

same assay, conditions: NCI-H292 cells, drug in cholesterol-free media with simvastatin 0.04 μM

Row | SMILES | Cholesterol-free media + simvastatin (0.04 μM)
9 | CC(=O)Oc1cc2c(s1)CCN(C(C(=O)C1CC1)c1ccccc1F)C2 (stereo not drawn) [Prasugrel (hydrochloride)] | 1.213
10 | C[C@]12C=CC(=O)C=C1CC[C@@H]1[C@@H]2[C@@H](O)C[C@@]2(C)[C@H]1CC[C@]2(O)C(=O)CO [Prednisolone] | 0.6412
11 | CCCNC(C)C(=O)Nc1ccccc1C (stereo not drawn) [Prilocaine] | 1.231

same assay, conditions: NCI-H292 cells, drug in complete media

Row | SMILES | Complete Media
12 | CC(=O)Oc1cc2c(s1)CCN(C(C(=O)C1CC1)c1ccccc1F)C2 (stereo not drawn) [Prasugrel (hydrochloride)] | 1.05
13 | C[C@]12C=CC(=O)C=C1CC[C@@H]1[C@@H]2[C@@H](O)C[C@@]2(C)[C@H]1CC[C@]2(O)C(=O)CO [Prednisolone] | 0.4437
14 | CCCNC(C)C(=O)Nc1ccccc1C (stereo not drawn) [Prilocaine] | 0.9727

same assay, conditions: complete media minus cholesterol-free media + simvastatin; >0 enhanced anti-cancer activity, about 0 neutral, <0 antagonist

Row | SMILES | Difference
15 | O=C(Nc1cccc2c(=O)cc(-c3nnn[nH]3)oc12)c1ccc(OCCCCc2ccccc2)cc1 [Pranlukast (hemihydrate)] | 0.10
16 | CC[C@H](C)C(=O)O[C@H]1C[C@H](O)C=C2C=C[C@H](C)[C@H](CC[C@@H](O)C[C@@H](O)CC(=O)[O-])[C@H]21.[Na+] [Pravastatin (sodium)] | 0.04
17 | C[C@]12C=CC(=O)C=C1CC[C@@H]1[C@@H]2C(=O)C[C@@]2(C)[C@H]1CC[C@]2(O)C(=O)CO [Prednisone] | 0.07

same assay, conditions: complete media minus cholesterol-free media + simvastatin; […]

Row | SMILES | Difference
18 | CC(C)N(CCNC(=O)CN1CCCC1=O)C(C)C [Pramiracetam] | 0.11

same assay, conditions: complete media vs cholesterol-free media + simvastatin (0.04 μM); >0 enhanced anti-cancer activity, about 0 neutral, <0 antagonist

Row | SMILES | Difference
19 | CC(=O)Oc1cc2c(s1)CCN(C(C(=O)C1CC1)c1ccccc1F)C2 (stereo not drawn) [Prasugrel (hydrochloride)] | −0.16
20 | C[C@]12C=CC(=O)C=C1CC[C@@H]1[C@@H]2[C@@H](O)C[C@@]2(C)[C@H]1CC[C@]2(O)C(=O)CO [Prednisolone] | −0.20
21 | CCCNC(C)C(=O)Nc1ccccc1C (stereo not drawn) [Prilocaine] | −0.26

test system: NCI-H292 lung cancer cells; assay: FDA drug screening, complete media vs cholesterol-free media without statin (TABLE 1); assay type: cell-based, human; conditions: Complete minus Cholesterol-free; >0 enhanced anti-cancer activity, about 0 neutral, <0 antagonist

Row | SMILES | Difference
22 | C[C@]12C=CC(=O)C=C1CC[C@@H]1[C@@H]2[C@@H](O)C[C@@]2(C)[C@H]1CC[C@]2(O)C(=O)CO [Prednisolone] | −0.02

same assay, conditions: Complete minus Cholesterol-free; […]

Row | SMILES | Difference
23 | CC(C)N(CCNC(=O)CN1CCCC1=O)C(C)C [Pramiracetam] | −0.05

same assay, conditions: Complete minus Cholesterol-free; greater than 0 enhanced anti-cancer activity, about 0 neutral, below 0 antagonist

Row | SMILES | Difference
24 | O=C(Nc1cccc2c(=O)cc(-c3nnn[nH]3)oc12)c1ccc(OCCCCc2ccccc2)cc1 [Pranlukast (hemihydrate)] | −0.10

same assay, conditions: Complete minus Cholesterol-free; greater than 0 enhanced anti-cancer activity, about 0 neutral, below 0 antagonists

Row | SMILES | Difference
25 | CC[C@H](C)C(=O)O[C@H]1C[C@H](O)C=C2C=C[C@H](C)[C@H](CC[C@@H](O)C[C@@H](O)CC(=O)[O-])[C@H]21.[Na+] [Pravastatin (sodium)] | −0.48
26 | C[C@]12C=CC(=O)C=C1CC[C@@H]1[C@@H]2C(=O)C[C@@]2(C)[C@H]1CC[C@]2(O)C(=O)CO [Prednisone] | −0.52
27 | CCCNC(C)C(=O)Nc1ccccc1C (stereo not drawn) [Prilocaine] | −0.49

same assay, conditions: NCI-H292 cells in cholesterol-free media without statin

Row | SMILES | Cholesterol-free
28 | CC[C@H](C)C(=O)O[C@H]1C[C@H](O)C=C2C=C[C@H](C)[C@H](CC[C@@H](O)C[C@@H](O)CC(=O)[O-])[C@H]21.[Na+] [Pravastatin (sodium)] | 1.713
29 | C[C@]12C=CC(=O)C=C1CC[C@@H]1[C@@H]2C(=O)C[C@@]2(C)[C@H]1CC[C@]2(O)C(=O)CO [Prednisone] | 1.522
30 | CCCNC(C)C(=O)Nc1ccccc1C (stereo not drawn) [Prilocaine] | 1.366

same assay, conditions: NCI-H292 cells in complete media

Row | SMILES | Complete
31 | CC[C@H](C)C(=O)O[C@H]1C[C@H](O)C=C2C=C[C@H](C)[C@H](CC[C@@H](O)C[C@@H](O)CC(=O)[O-])[C@H]21.[Na+] [Pravastatin (sodium)] | 1.238
32 | C[C@]12C=CC(=O)C=C1CC[C@@H]1[C@@H]2C(=O)C[C@@]2(C)[C@H]1CC[C@]2(O)C(=O)CO [Prednisone] | 1.002
33 | CCCNC(C)C(=O)Nc1ccccc1C (stereo not drawn) [Prilocaine] | 0.8796

same assay, conditions: NCI-H292 cells, FDA drug library screen, cholesterol-free media without statin

Row | SMILES | Cholesterol-free
34 | O=C(Nc1cccc2c(=O)cc(-c3nnn[nH]3)oc12)c1ccc(OCCCCc2ccccc2)cc1 [Pranlukast (hemihydrate)] | 1.075

same assay, conditions: NCI-H292 cells, FDA drug library screen, complete media

Row | SMILES | Complete
35 | O=C(Nc1cccc2c(=O)cc(-c3nnn[nH]3)oc12)c1ccc(OCCCCc2ccccc2)cc1 [Pranlukast (hemihydrate)] | 0.9755

same assay, conditions: NCI-H292 cells, cholesterol-free media without statin, FDA drug library screen

Row | SMILES | Cholesterol-free
36 | CC(C)N(CCNC(=O)CN1CCCC1=O)C(C)C [Pramiracetam] | 1.059
37 | CC(=O)Oc1cc2c(s1)CCN(C(C(=O)C1CC1)c1ccccc1F)C2 (stereo not drawn) [Prasugrel (hydrochloride)] | 0.9393
38 | C[C@]12C=CC(=O)C=C1CC[C@@H]1[C@@H]2[C@@H](O)C[C@@]2(C)[C@H]1CC[C@]2(O)C(=O)CO [Prednisolone] | 0.4941

same assay, conditions: NCI-H292 cells, complete media, FDA drug library screen

Row | SMILES | Complete
39 | CC(C)N(CCNC(=O)CN1CCCC1=O)C(C)C [Pramiracetam] | 1.007
40 | CC(=O)Oc1cc2c(s1)CCN(C(C(=O)C1CC1)c1ccccc1F)C2 (stereo not drawn) [Prasugrel (hydrochloride)] | 1.044
41 | C[C@]12C=CC(=O)C=C1CC[C@@H]1[C@@H]2[C@@H](O)C[C@@]2(C)[C@H]1CC[C@]2(O)C(=O)CO [Prednisolone] | 0.4768

same assay, conditions: complete vs cholesterol-free media; >0 enhanced anti-cancer activity, about 0 neutral, <0 antagonist

Row | SMILES | Difference
42 | CC(=O)Oc1cc2c(s1)CCN(C(C(=O)C1CC1)c1ccccc1F)C2 (stereo not drawn) [Prasugrel (hydrochloride)] | 0.10

Source: US20250144067A1, “PERSONALIZED STARVATION THERAPY FOR CANCER” (Faeth Therapeutics, Inc., priority 2021, published 2025)
